Measured values reported in patent US20240158446A1, “CYCLIC COMPOUND HAVING SELECTIVE INHIBITORY ACTION ON KRAS OVER HRAS AND NRAS” (CHUGAI SEIYAKU KABUSHIKI KAISHA, priority 2021, published 2024).
Where two headings read alike, the source gives them in different places.

Experiments:
[1] = target: GDP-bound NRAS wild-type protein (Homo sapiens, UniProt P01111); assay: Binding to NRAS by surface plasmon resonance (SPR), Single Cycle Kinetics; conditions: for NRAS/KRAS (ratio of KD value with respect to GDP-bound NRAS wild-type protein to KD value with respect to KRAS): SPR KD ratio NRAS/KRAS, class symbols; for NRAS/KRAS (ratio of KD value for NRAS to KD value for KRAS): SPR, GDP-bound NRAS wild-type protein vs GDP-bound KRAS wild-type protein
Sequence of GDP-bound NRAS wild-type protein (P01111 whole entry): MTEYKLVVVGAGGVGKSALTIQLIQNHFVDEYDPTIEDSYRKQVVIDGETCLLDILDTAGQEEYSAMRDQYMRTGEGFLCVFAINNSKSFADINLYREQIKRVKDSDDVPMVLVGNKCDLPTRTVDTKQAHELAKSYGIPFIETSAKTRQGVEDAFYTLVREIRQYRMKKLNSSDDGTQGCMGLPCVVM

[2] = test system: human lung cancer strain NCI-H441;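 note: cell proliferation inhibition after four days measured by CellTiter-Glo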
[3] = target: GDP-bound KRAS wild-type protein (Homo sapiens, UniProt P01116); assay: Binding to KRAS by surface plasmon resonance (SPR), Single Cycle Kinetics; conditions: GDP-bound KRAS wild-type protein, read-out: KRAS KD
Sequence of GDP-bound KRAS wild-type protein (P01116 whole entry): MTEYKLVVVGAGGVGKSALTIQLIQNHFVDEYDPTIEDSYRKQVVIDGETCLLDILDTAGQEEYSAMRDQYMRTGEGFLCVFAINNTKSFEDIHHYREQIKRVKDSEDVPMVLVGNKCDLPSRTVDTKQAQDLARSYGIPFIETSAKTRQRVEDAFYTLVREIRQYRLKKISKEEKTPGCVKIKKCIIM

[4] = target: GDP-bound HRAS wild-type protein (Homo sapiens, UniProt P01112); assay: Binding to HRAS by surface plasmon resonance (SPR), Single Cycle Kinetics; conditions: for HRAS/KRAS (ratio of KD value with respect to GDP-bound HRAS wild-type protein to KD value with respect to KRAS): SPR KD ratio HRAS/KRAS, class symbols; for HRAS/KRAS (ratio of KD value for HRAS to KD value for KRAS): SPR, GDP-bound HRAS wild-type protein vs GDP-bound KRAS wild-type protein
Sequence of GDP-bound HRAS wild-type protein (P01112 whole entry): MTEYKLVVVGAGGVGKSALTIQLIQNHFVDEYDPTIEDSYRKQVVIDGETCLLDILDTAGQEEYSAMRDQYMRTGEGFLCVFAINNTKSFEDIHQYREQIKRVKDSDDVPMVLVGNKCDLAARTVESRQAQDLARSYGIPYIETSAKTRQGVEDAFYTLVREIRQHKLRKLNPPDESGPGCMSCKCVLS

[5] = SPR Single Cycle Kinetics, 1:1 binding model

Row | Compound | NRAS/KRAS (ratio of KD value with respect to GDP-bound NRAS wild-type protein to KD value with respect to KRAS) [1] | IC50 [2] [nM] | Kd [3, 5] [nM] | HRAS/KRAS (ratio of KD value with respect to GDP-bound HRAS wild-type protein to KD value with respect to KRAS) [4] | NRAS/KRAS (ratio of KD value for NRAS to KD value for KRAS) [1] | Kd ([3]; SPR, Single Cycle Kinetics) [nM] | HRAS/KRAS (ratio of KD value for HRAS to KD value for KRAS) [4] | NRAS/KRAS (ratio of KD value for NRAS to KD value for KRAS) ([1]; KD ratio class) | Kd ([3]; SPR, Single Cycle Kinetics, 1:1 binding model) [nM] | HRAS/KRAS (ratio of KD value for HRAS to KD value for KRAS) ([4]; KD ratio class)
1 | CCC[C@H]1C(=O)N[C@@H]([C@@H](C)CC)C(=O)N(C)CC(=O)N(C)[C@H]2C/C=C\CCN(C2=O)[C@@H](Cc2ccc(C)cc2)C(=O)N(C)CC(=O)N[C@@H](CCc2ccc(Cl)c(Cl)c2)C(=O)N2C[C@H](OC(C)C)C[C@H]2C(=O)NC2(CC(C)(C)C2)C(=O)N(C)[C@@H](C(CC)CC)C(=O)N(C)[C@H](C(=O)N(C)C)CC(=O)N1C [PP2537] | AA (a compound having 20 or more is denoted as AA) | 75.1 | 0.74 | A (a compound having 10 or more and less than 20 is denoted as A) | – | – | – | – | – | –
2 | CCOC[C@H]1C(=O)N[C@@H]([C@@H](C)CC)C(=O)N(C)CC(=O)N(C)[C@H]2C/C=C\CCN(C2=O)[C@@H](Cc2ccc(C)cc2)C(=O)N(C)CC(=O)N[C@@H](CCc2ccc(C(F)(F)F)c(OC)c2)C(=O)N2C[C@@H](C)C[C@H]2C(=O)NC2(CC(C)(C)C2)C(=O)N(C)[C@@H](C2CCCC2)C(=O)N(C)[C@H](C(=O)N(CC)CC)CC(=O)N1C [PP2405] | – | 8.6 | – | – | A (a compound having 10 or more and less than 20 is denoted as A) | 0.31 | A (a compound having 10 or more and less than 20 is denoted as A) | – | – | –
3 | CC[C@H](C)[C@@H]1NC(=O)[C@H](COC)N(C)C(=O)C[C@@H](C(=O)N(C)C)N(C)C(=O)[C@H](C2CCCCC2)N(C)C(=O)C2(CC(C)(C)C2)NC(=O)[C@@H]2C[C@@H](OC(C)C)CN2C(=O)[C@H](CCc2ccc(Cl)c(Cl)c2)NC(=O)CN(C)C(=O)[C@H](Cc2ccc(C(F)(F)F)cc2)N2CC/C=C\C[C@@H](C2=O)N(C)C(=O)CN(C)C1=O [PP2662] | AA (a compound having 20 or more is denoted as AA) | 13.1 | 0.29 | A (a compound having 10 or more and less than 20 is denoted as A) | – | – | – | – | – | –
4 | CCO[C@@H]1C[C@H]2C(=O)NC3(CC(C)(C)C3)C(=O)N(C)[C@@H](C(CC)CC)C(=O)N(C)[C@H](C(=O)N(C)C)CC(=O)N(C)[C@@H](CC3CC3)C(=O)N[C@@H]([C@@H](C)CC)C(=O)N(C)CC(=O)N(C)[C@H]3C/C=C\CCN(C3=O)[C@@H](CC3CCC(F)(F)CC3)C(=O)N(C)CC(=O)N[C@@H](CCc3ccc(C(F)(F)F)c(OC)c3)C(=O)N2C1 [PP2480] | – | 30.5 | – | – | A (a compound having 10 or more and less than 20 is denoted as A) | 0.84 | A (a compound having 10 or more and less than 20 is denoted as A) | – | – | –
5 | CCOC[C@H]1C(=O)N[C@@H]([C@@H](C)CC)C(=O)N2CCC[C@H]2C(=O)N(C)[C@H]2C/C=C\CCN(C2=O)[C@@H](CC2CCC(F)(F)CC2)C(=O)N(C)CC(=O)N[C@@H](CCc2ccc(C(F)(F)F)c(OC)c2)C(=O)N2C[C@H](OCC)C[C@H]2C(=O)N(C)C2(CCC2)C(=O)N(C)[C@@H](C(CC)CC)C(=O)N(C)[C@H](C(=O)N(C)C)CC(=O)N1C [PP2355] | – | 103 | – | – | AA (a compound having 20 or more is denoted as AA) | 3.9 | A (a compound having 10 or more and less than 20 is denoted as A) | – | – | –
6 | CCC[C@H]1C(=O)N[C@@H]([C@@H](C)CC)C(=O)N(C2CC2)CC(=O)N(C)[C@H]2C/C=C\CCN(C2=O)[C@@H](CC2CCC(F)(F)CC2)C(=O)N(C)CC(=O)N[C@@H](CCc2ccc(C(F)(F)F)c(OC)c2)C(=O)N2C[C@@H](C)C[C@H]2C(=O)N(C)C2(CCC2)C(=O)N(C)[C@@H](C2CCCC2)C(=O)N(C)[C@H](C(=O)N(C)C)CC(=O)N1C [PP2378] | – | 48.3 | – | – | B (a compound having 3 or more and less than 10 is denoted as B) | 0.88 | A (a compound having 10 or more and less than 20 is denoted as A) | – | – | –
7 | CCO[C@@H]1C[C@H]2C(=O)NC3(CCC3)C(=O)N(C)[C@@H](C3CCCC3)C(=O)N(C)[C@H](C(=O)N(C)C)CC(=O)N(C)[C@@H](Cc3ccccc3F)C(=O)N[C@@H]([C@@H](C)CC)C(=O)N(C)CC(=O)N(C)[C@H]3CCCCCN(C3=O)[C@@H](Cc3ccc(C(F)(F)F)cc3)C(=O)N(C)CC(=O)N[C@@H](CCc3cc(F)c(C(F)(F)F)c(F)c3)C(=O)N2C1 [PP0934] | – | 51.8 | – | – | B (a compound having 3 or more and less than 10 is denoted as B) | 0.72 | B (a compound having 3 or more and less than 10 is denoted as B) | – | – | –
8 | CCO[C@@H]1C[C@H]2C(=O)NC3(CC(C)(C)C3)C(=O)N(C)[C@@H](C3CCCC3)C(=O)N(C)[C@H](C(=O)N(C)CC)CC(=O)N(C)[C@@H](COC)C(=O)N[C@@H]([C@@H](C)CC)C(=O)N(C)CC(=O)N(C)[C@H]3C/C=C\CCN(C3=O)[C@@H](Cc3ccc(C)cc3)C(=O)N(C)CC(=O)N[C@@H](CCc3cc(F)c(C(F)(F)F)c(F)c3)C(=O)N2C1 [PP2396] | – | 4.1 | – | – | A (a compound having 10 or more and less than 20 is denoted as A) | 0.069 | A (a compound having 10 or more and less than 20 is denoted as A) | – | – | –
9 | CCC[C@H]1C(=O)N[C@@H](CC(C)C)C(=O)N2C[C@@H](OC)C[C@H]2C(=O)N(C)[C@H]2C/C=C\CCN(C2=O)[C@@H](Cc2ccc(C)cc2)C(=O)N(C)CC(=O)N[C@@H](CCc2ccc(C(F)(F)F)c(OC)c2)C(=O)N2C[C@H](OCC)C[C@H]2C(=O)NC2(CCC2)C(=O)N(C)[C@@H](C2CCCC2)C(=O)N(C)[C@H](C(=O)N(C)C)CC(=O)N1C [PP2548] | A (a compound having 10 or more and less than 20 is denoted as A) | 1050 | 7.8 | B (a compound having 3 or more and less than 10 is denoted as B) | – | – | – | – | – | –
10 | CCOC[C@H]1C(=O)N[C@@H]([C@@H](C)CC)C(=O)N(C)CC(=O)N(C)[C@H]2C/C=C\CCN(C2=O)[C@@H](Cc2ccc(C)cc2)C(=O)N(C)CC(=O)N[C@@H](CCc2cc(F)c(C(F)(F)F)c(F)c2)C(=O)N2C[C@H](OCC)C[C@H]2C(=O)NC2(CC(C)(C)C2)C(=O)N(C)[C@@H](C2CCCC2)C(=O)N(C)[C@H](C(=O)N(CC)CC)CC(=O)N1C [PP2408] | – | 21.3 | – | – | A (a compound having 10 or more and less than 20 is denoted as A) | 0.23 | A (a compound having 10 or more and less than 20 is denoted as A) | – | – | –
11 | CCO[C@@H]1C[C@H]2C(=O)NC3(CCC3)C(=O)N(C)[C@@H](C3CCCC3)C(=O)N(C)[C@H](C(=O)N(C)C)CC(=O)N(C)[C@@H](CC)C(=O)N[C@@H](C(C)C)C(=O)N(C)CC(=O)N(C)[C@H]3C/C=C\CCN(C3=O)[C@@H](Cc3ccc(C(F)(F)F)cc3)C(=O)N(C)CC(=O)N[C@@H](CCc3cc(F)c(C(F)(F)F)c(F)c3)C(=O)N2C1 [PP1270] | – | 53.5 | – | – | – | – | – | A (a compound having 10 or more and less than 20 is denoted as A) | 0.13 | B (a compound having 3 or more and less than 10 is denoted as B)
